What follows are molecules tested on HuH-7 replicon cells 5–15 and 9–13 (HCV replication) (assay: Inhibition of viral replication in HuH-7 replicon cells (HCV RNA / GAPDH RNA by multiplex RT-PCR)). Details: Hepatitis C virus, 72 h; inhibiting 50% of replication; HuH-7 replicon cells, 3 days; read-out: IC50.
Format: cell-based
Method in brief: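 Replicon cells seeded at 7×10^3 cells/well, grown 24 h, then exposed 3 days at 37 °C to compound at final 100 μM–1 μM (1% DMSO). Multiplex TaqMan RT-PCR on total RNA quantified HCV 5′-UTR and GAPDH RNA against a standard curve; HCV/GAPDH ratio reported as percent of untreated control.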
`O=C(N/N=C/c1ccccc1OS(=O)(=O)c1ccc(C(F)(F)F)cc1)C1CCCCC1` [Compound 101, 2-{(E)-[2-(cyclohexylcarbonyl)hydrazono]methyl}phenyl 4-(trifluoromethyl)benzenesulfonate] gave an IC50 of 5 to 50 µM. In the case of `O=C(N/N=C/c1ccccc1OS(=O)(=O)c1ccc(C(F)(F)F)cc1)c1c(F)cccc1F` [Compound 102, 2-{(E)-[2-(2,6-difluorobenzoyl)hydrazono]methyl}phenyl4-(trifluoromethyl)benzenesulfonate], the IC50 is reported as < 5 µM. `O=C(N/N=C/c1ccccc1OS(=O)(=O)c1ccc(C(F)(F)F)cc1)c1c(F)cccc1C(F)(F)F` [Compound 103, 2-((E)-{2-[2-fluoro-6-(trifluoromethyl)benzoyl]hydrazono}methyl)-phenyl 4-(trifluoromethyl)benzenesulfonate] was tested, and the IC50 was < 5 µM. In the case of `O=C(N/N=C/c1ccccc1OS(=O)(=O)c1ccc(C(F)(F)F)cc1)c1ccccc1C(F)(F)F` [Compound 104, 2-((E)-{2-[2-(trifluoromethyl)benzoyl]hydrazono}methyl)-phenyl 4-(trifluoromethyl)benzenesulfonate], the IC50 is reported as < 5 µM. Work on `CCc1ccc(S(=O)(=O)N/N=C/c2ccccc2OS(=O)(=O)c2ccc(C(F)(F)F)cc2)cc1` [Compound 105, 2-((E)-{2-[(4-ethylphenyl)sulfonyl]hydrazono}methyl)-phenyl 4-(trifluoromethyl)benzenesulfonate] yielded an IC50 of 5 to 50 µM. `Cn1cnc(CC(=O)N/N=C/c2ccccc2OS(=O)(=O)c2ccc(C(F)(F)F)cc2)c1` [Compound 106, 2-((E)-{2-[2-(1-methyl-1H-imidazol-4-yl)acetyl]hydrazono}methyl)phenyl 4-(trifluoromethyl)benzenesulfonate] was tested, and the IC50 was < 5 µM. `O=C(Cn1c(Br)nc(Cl)c1Cl)N/N=C/c1ccccc1OS(=O)(=O)c1ccc(C(F)(F)F)cc1` [Compound 107, 2-((E)-{2-[2-(2-bromo-4,5-dichloro-1H-imidazol-1-yl)acetyl]hydrazono}methyl)phenyl 4-(trifluoromethyl)benzenesulfonate] was tested, and the IC50 was > 50 µM. In the case of `O=C(Cc1ccccc1)N/N=C/c1ccccc1OS(=O)(=O)c1ccccc1` [Compound 108, 2-{(E)-[2-(2-phenylacetyl)hydrazono]methyl}phenylbenzenesulfonate], the IC50 is reported as > 50 µM. `O=C(Cc1ccccc1)N/N=C/c1ccccc1OS(=O)(=O)c1cccs1` [Compound 109, 2-{(E)-[2-(2-phenylacetyl)hydrazono]methyl}phenylthiophene-2-sulfonate] was tested, and the IC50 was > 50 µM. In the case of `Cc1ccccc1S(=O)(=O)Oc1ccccc1/C=N/NC(=O)Cc1ccccc1` [Compound 110, 2-{(E)-[2-(2-phenylacetyl)hydrazono]methyl}phenyl 2-methylbenzenesulfonate], the IC50 is reported as > 50 µM. `Cc1cccc(S(=O)(=O)Oc2ccccc2/C=N/NC(=O)Cc2ccccc2)c1` [Compound 111, 2-{(E)-[2-(2-phenylacetyl)hydrazono]methyl}phenyl 3-methylbenzenesulfonate] was tested, and the IC50 was > 50 µM. `O=C(Cc1ccccc1)N/N=C/c1ccccc1OS(=O)(=O)c1ccccc1F` [Compound 112, 2-{(E)-[2-(2-phenylacetyl)hydrazono]methyl}phenyl 2-fluorobenzenesulfonate] was tested, and the IC50 was > 50 µM. With `O=C(Cc1ccccc1)N/N=C/c1ccccc1OS(=O)(=O)c1cccc(F)c1` [Compound 113, 2-{(E)-[2-(2-phenylacetyl)hydrazono]methyl}phenyl 3-fluorobenzenesulfonate] the IC50 was > 50 µM. In the case of `N#Cc1cccc(S(=O)(=O)Oc2ccccc2/C=N/NC(=O)Cc2ccccc2)c1` [Compound 114, 2-{(E)-[2-(2-phenylacetyl)hydrazono]methyl}phenyl 3-cyanobenzenesulfonate], the IC50 is reported as > 50 µM. In the case of `N#Cc1ccc(S(=O)(=O)Oc2ccccc2/C=N/NC(=O)Cc2ccccc2)cc1` [Compound 115, 2-{(E)-[2-(2-phenylacetyl)hydrazono]methyl}phenyl 4-cyanobenzenesulfonate], the IC50 is reported as 5 to 50 µM.

From patent publication US7026339B2, “Inhibitors of HCV NS5B polymerase” (priority 2003, dated 2006)
